Laboratory results taken from the NIST ThermoML archive (doi:10.1021/je049807n).

Key:
[1] = 298.15 K; for surface tension liquid-gas: Pendant drop shape; for mass density: 101.33 kPa, Liquid
[2] = xn = mol fraction of the nth substance listed; conditions: 298.15 K; for surface tension liquid-gas: Pendant drop shape; for mass density: 101.3 kPa, Liquid

Cc1ccc(C)c(C)c1 [1,2,4-trimethylbenzene]
[1]
Conditions	mass density [kg/m3]	surface tension liquid-gas [mN/m]
–	871.64	29.25

Cc1ccc(C)c(C)c1 [1,2,4-trimethylbenzene] + CC(C)(C)O
[2]
Conditions	mass density [kg/m3]	surface tension liquid-gas [mN/m]
x2 = 0.0498	867.42	–
x2 = 0.1	863.45	28.12
x2 = 0.1496	859.56	–
x2 = 0.2007	855.56	27
x2 = 0.2495	851.7	–
x2 = 0.3001	847.58	25.92
x2 = 0.351	843.33	–
x2 = 0.4002	839.16	24.93
x2 = 0.4496	834.81	–
x2 = 0.5005	830.25	24.06
x2 = 0.5494	825.78	–
x2 = 0.6006	821.1	23.23
x2 = 0.6502	816.48	–
x2 = 0.6991	811.94	22.46
x2 = 0.7491	807.12	–
x2 = 0.7993	802.21	21.7
x2 = 0.85	797.46	–
x2 = 0.9003	791.86	20.96
x2 = 0.9499	786.65	–

Cc1ccc(C)c(C)c1 [1,2,4-trimethylbenzene] + CC(C)CO
[2]
Conditions	mass density [kg/m3]	surface tension liquid-gas [mN/m]
x2 = 0.0509	868.47	–
x2 = 0.1004	865.43	28.42
x2 = 0.153	862.28	–
x2 = 0.2018	859.33	27.54
x2 = 0.249	856.45	–
x2 = 0.3002	853.23	26.7
x2 = 0.3487	850.09	–
x2 = 0.3996	846.71	25.95
x2 = 0.4494	843.33	–
x2 = 0.4995	839.86	25.29
x2 = 0.5488	836.34	–
x2 = 0.6002	832.59	24.72
x2 = 0.6508	828.75	–
x2 = 0.6989	824.99	24.16
x2 = 0.7484	820.99	–
x2 = 0.8002	816.62	23.6
x2 = 0.8506	812.2	–
x2 = 0.8984	807.85	22.98
x2 = 0.9496	802.94	–

Cc1ccc(C)c(C)c1 [1,2,4-trimethylbenzene] + CCC(C)O
[2]
Conditions	mass density [kg/m3]	surface tension liquid-gas [mN/m]
x2 = 0.0497	868.48	–
x2 = 0.1008	865.35	28.58
x2 = 0.1486	862.53	–
x2 = 0.201	859.43	27.94
x2 = 0.2507	856.46	–
x2 = 0.2985	853.6	27.32
x2 = 0.3492	850.47	–
x2 = 0.4008	847.25	26.71
x2 = 0.4506	844.12	–
x2 = 0.4997	840.93	26.15
x2 = 0.5486	837.68	–
x2 = 0.6008	834.12	25.59
x2 = 0.6505	830.64	–
x2 = 0.6994	827.12	25.07
x2 = 0.7503	823.25	–
x2 = 0.7999	819.39	24.56
x2 = 0.8496	815.42	–
x2 = 0.9002	811.21	24.02
x2 = 0.9489	806.96	–

Cc1ccc(C)c(C)c1 [1,2,4-trimethylbenzene] + CCCCO
[2]
Conditions	mass density [kg/m3]	surface tension liquid-gas [mN/m]
x2 = 0.0499	869.1	–
x2 = 0.1013	866.38	28.81
x2 = 0.1492	863.89	–
x2 = 0.2002	861.22	28.42
x2 = 0.2499	858.58	–
x2 = 0.2992	855.92	28.04
x2 = 0.3503	853.09	–
x2 = 0.4009	850.22	27.61
x2 = 0.4491	847.4	–
x2 = 0.5012	844.25	27.15
x2 = 0.5498	841.19	–
x2 = 0.5985	838.02	26.65
x2 = 0.6501	834.53	–
x2 = 0.6987	831.1	26.08
x2 = 0.7499	827.34	–
x2 = 0.8001	823.46	25.49
x2 = 0.8501	819.4	–
x2 = 0.9002	815.1	24.86
x2 = 0.9503	810.56	–

Cc1cc(C)cc(C)c1 [1,3,5-trimethylbenzene]
[1]
Conditions	mass density [kg/m3]	surface tension liquid-gas [mN/m]
–	861.03	28.09
